Like-named read-outs stand apart in the source and are kept apart here.
Experiments:
SETD2(1434-1711) = target: T1, SETD2(1434-1711) (Homo sapiens, UniProt Q9BYW2); assay: SETD2 (1434-1711) assay; assay type: biochemical; settings: read-out: SETD2 (1434-1711)
T1 construct: SETD2 (1434-1711) Assay; catalogue N/A
T1 sequence (Q9BYW2 1434-1711): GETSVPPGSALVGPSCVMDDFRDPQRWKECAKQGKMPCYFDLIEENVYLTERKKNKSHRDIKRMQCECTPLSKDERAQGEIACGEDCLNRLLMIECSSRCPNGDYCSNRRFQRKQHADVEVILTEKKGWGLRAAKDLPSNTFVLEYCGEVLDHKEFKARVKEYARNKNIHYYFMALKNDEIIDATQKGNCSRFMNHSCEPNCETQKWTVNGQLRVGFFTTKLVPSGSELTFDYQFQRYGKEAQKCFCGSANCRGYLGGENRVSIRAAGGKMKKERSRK

H3K36me3 in A549 cells = assay: In-Cell Western (ICW) assay of SETD2 inhibitors (A549 assay); assay type: cell-based, human; settings: A549 cells, read-out: SETD2 A549
Procedure, shortened: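 H3K36me3 In-Cell Western: cells exposed to compound for 3 days at 4,000 cells/well, 37° C. DRAQ5 (1:1000) marked cell number, with 700/800-channel Licor read-out.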

| SMILES | IC50 (SETD2(1434-1711)) [nM] | IC50 (H3K36me3 in A549 cells) [nM] | IC50 (H3K36me3 in A549 cells; Homo sapiens) [nM] |
| --- | --- | --- | --- |
| CNC(=O)CCN1CCCC(NC(=O)c2cc3c(F)ccc(C)c3[nH]2)C1 (stereo not shown) [compound 386] | > 10000 | > 2000 | – |
| Cc1ccc(F)c2cc(C(=O)NC3CCCC(N4CCCN(C)C(=O)C4)C3)[nH]c12 (stereo not shown) [compound 387] | > 10000 | > 2000 | – |
| Cc1ccc(F)c2cc(C(=O)NC3CCCC(N4CCCOCC4)C3)[nH]c12 (stereo not shown) [compound 388] | > 10000 | > 2000 | – |
| CC(=O)N(C)CCCN1CCCC(NC(=O)c2cc3c(F)ccc(C)c3[nH]2)C1 (stereo not shown) [compound 389] | > 10000 | > 2000 | – |
| Cc1ccc(F)c2cc(C(=O)Nc3cccc(S(C)(=O)=O)c3)[nH]c12 [compound 399] | 1800 | 2400 | – |
| Cc1ccc(F)c2cc(C(=O)NC3CCCc4cnccc43)[nH]c12 (stereo not shown) [compound 403] | 2500 | 2700 | – |
| Cc1ccc(F)c2cc(C(=O)Nc3cncc(N4CCN(C)CC4)c3)[nH]c12 [compound 410] | 700 | 3000 | – |
| Cc1ccc(F)c2cc(C(=O)Nc3cccc(N4C5CCC4C(=O)N(C)C5)c3)[nH]c12 (stereo not shown) [compound 411] | 800 | 3000 | – |
| Cc1ccc(F)c2cc(C(=O)Nc3cccc(N4CCN(C(C)c5ccccc5)CC4)c3)[nH]c12 (stereo not shown) [compound 417] | 900 | 3400 | – |
| Cc1cccc2cc(C(=O)NC(c3ncccc3Cl)C3CC3)[nH]c12 (stereo not shown) [compound 419] | 800 | – | 3400 |
| Cc1cccnc1C(CCC(=O)N1CCOCC1)NC(=O)c1cc2cccc(C)c2[nH]1 (stereo not shown) [compound 420] | 2400 | 3600 | – |
| Cc1ccc(F)c2cc(C(=O)Nc3cccc(N4C5COCC4C5)c3)[nH]c12 [compound 422] | 1500 | 3700 | – |
| Cc1ccc(F)c2cc(C(=O)NC(c3nn4ccccc4c3C)C3CC3)[nH]c12 (stereo not shown) [compound 424] | 700 | 3800 | – |
| Cc1ccc(F)c2cc(C(=O)Nc3cccc(-c4ncc[nH]4)c3)[nH]c12 [compound 428] | 1000 | – | 4100 |
| C=Cc1ccc(C)c2[nH]c(C(=O)NC(CCC(=O)N3CCOCC3)c3ncccc3C)cc12 (stereo not shown) [compound 431] | 2100 | 4400 | – |
| Cc1c(C#N)ccnc1C(NC(=O)c1cc2c(F)ccc(C)c2[nH]1)C1CC1 (stereo not shown) [compound 432] | 700 | – | 4500 |
| Cc1cccnc1C(CCC(=O)N1CCC(O)CC1)NC(=O)c1cc2cccc(C)c2[nH]1 (stereo not shown) [compound 434] | 4300 | 4600 | – |
| Cc1cc(CCN2CCN(C)CC2)cnc1C(NC(=O)c1cc2cccc(C)c2[nH]1)C1CC1 (stereo not shown) [compound 435] | 700 | – | 4700 |
| Cc1cccc2cc(C(=O)Nc3ccc4cnccc4c3)[nH]c12 [compound 437] | 600 | 4800 | – |
| Cc1cc(N2CCN(CCCc3cccnc3)CC2)cnc1C(NC(=O)c1cc2cccc(C)c2[nH]1)C1CC1 (stereo not shown) [compound 440] | 800 | – | 5000 |
| Cc1cc(CC(=O)N2CCN(C)CC2)cnc1C(NC(=O)c1cc2cccc(C)c2[nH]1)C1CC1 (stereo not shown) [compound 441] | 4400 | 5100 | – |
| Cc1ccc(CN2CCOCC2)cc1NC(=O)c1cc2cccc(C)c2[nH]1 [compound 442] | 2100 | – | 5100 |
| Cc1cc(-c2ncc[nH]2)cnc1C(NC(=O)c1cc2cccc(C)c2[nH]1)C1CC1 (stereo not shown) [compound 445] | 1400 | – | 5200 |
| Cc1cccnc1C(CCC(=O)N(C)C)NC(=O)c1cc2cccc(C)c2[nH]1 (stereo not shown) [compound 446] | 6300 | – | 5400 |
| Cc1cc(CCNC(=O)Cc2cccnc2)cnc1C(NC(=O)c1cc2cccc(C)c2[nH]1)C1CC1 (stereo not shown) [compound 447] | 2800 | 5500 | – |
| Cc1cccc2cc(C(=O)Nc3ccc4ccc(C(=O)N5CCN(C)CC5)cc4c3)[nH]c12 [compound 448] | 900 | 5500 | – |
| Cc1ccnnc1C(NC(=O)c1cc2c(F)ccc(C)c2[nH]1)C1CC1 (stereo not shown) [compound 450] | 2300 | – | 5600 |

The remaining compounds from weak to strong by IC50 (SETD2(1434-1711)), led by results:

| IC50 (SETD2(1434-1711)) [nM] | IC50 (H3K36me3 in A549 cells) [nM] | IC50 (H3K36me3 in A549 cells; Homo sapiens) [nM] | SMILES |
| --- | --- | --- | --- |
| 600 | 3800 | – | Cc1cc(C2CCC(NC(=O)Cc3cccnc3)CC2)cnc1C(NC(=O)c1cc2cccc(C)c2[nH]1)C1CC1 (stereo not shown) [compound 423] |
| 600 | 4400 | – | Cc1cc(OCC(O)CNCc2cccnc2)cnc1C(NC(=O)c1cc2cccc(C)c2[nH]1)C1CC1 (stereo not shown) [compound 430] |
| 600 | – | 5100 | Cc1cccc2cc(C(=O)Nc3cccc(N4CCN(S(=O)(=O)CCN)CC4)n3)[nH]c12 [compound 443] |
| 500 | – | 2400 | Cc1ccc(F)c2cc(C(=O)Nc3cccc(-c4cn[nH]c4N)c3)[nH]c12 [compound 397] |
| 400 | 2800 | – | CCN(CC)CCS(=O)(=O)N1CCN(c2cccc(NC(=O)c3cc4cccc(C)c4[nH]3)c2)CC1 [compound 405] |
| 400 | – | 2900 | Cc1cccnc1C(Cc1ccccc1)NC(=O)c1cc2cccc(C)c2[nH]1 (stereo not shown) [compound 408] |
| 400 | 3600 | – | Cc1ccc(F)c2cc(C(=O)Nc3cccc(CN4CCN(C)CC4)c3)[nH]c12 [compound 421] |
| 400 | 3900 | – | Cc1cc(-c2ccc(N)nc2)cnc1C(NC(=O)c1cc2cccc(C)c2[nH]1)C1CC1 (stereo not shown) [compound 426] |
| 400 | 4000 | – | Cc1cccc2cc(C(=O)Nc3ccc4ncc(CN(C)C)n4c3)[nH]c12 [compound 427] |
| 400 | 5200 | – | Cc1ccc(F)c2cc(C(=O)Nc3cccc(-c4cc(N)n[nH]4)c3)[nH]c12 [compound 444] |
| 300 | 2300 | – | Cc1cccc2cc(C(=O)Nc3cccc(N4CCN(C(=O)CN)CC4)c3)[nH]c12 [compound 396] |
| 300 | 2400 | – | Cc1ccc(F)c2cc(C(=O)NC(c3nc4ccccn4c3C)C3CC3)[nH]c12 (stereo not shown) [compound 400] |
| 300 | 2500 | – | Cc1cc(-c2ccc(CN3CCOCC3)nc2)cnc1C(NC(=O)c1cc2cccc(C)c2[nH]1)C1CC1 (stereo not shown) [compound 402] |
| 300 | – | 2800 | Cc1cc(-c2ncccn2)cnc1C(NC(=O)c1cc2cccc(C)c2[nH]1)C1CC1 (stereo not shown) [compound 404] |
| 300 | 2800 | – | Cc1cc(-c2cccnc2)cnc1C(NC(=O)c1cc2cccc(C)c2[nH]1)C1CC1 (stereo not shown) [compound 406] |
| 300 | 2800 | – | Cc1ccc(N2CCN(C)CC2)cc1NC(=O)c1cc2c(F)ccc(C)c2[nH]1 [compound 407] |
| 300 | 3900 | – | Cc1ccc(F)c2cc(C(=O)Nc3cccc(C4CCCN4)c3)[nH]c12 (stereo not shown) [compound 425] |
| 300 | 4700 | – | Cc1ccc(F)c2cc(C(=O)Nc3cccc(N4CC5CCC(C4)C5N(C)C)c3)[nH]c12 (stereo not shown) [compound 436] |

| IC50 (SETD2(1434-1711)) [nM] | IC50 (H3K36me3 in A549 cells) [nM] | IC50 (H3K36me3 in A549 cells; Homo sapiens) [nM] | SMILES |
| --- | --- | --- | --- |
| 300 | – | 4900 | Cc1ccc(F)c2cc(C(=O)Nc3cccc(C4CCCCN4)c3)[nH]c12 (stereo not shown) [compound 438] |
| 200 | – | 2000 | Cc1ccc(F)c2cc(C(=O)Nc3cccc4c(N5CCN(C)CC5)[nH]nc34)[nH]c12 [compound 391] |
| 200 | – | 2100 | Cc1ccc(F)c2cc(C(=O)Nc3cccc(-c4ccn(C)n4)c3)[nH]c12 [compound 394] |
| 200 | 5000 | – | Cc1cccc2cc(C(=O)Nc3cccc(N4CCC(NC(=O)CN)CC4)c3)[nH]c12 [compound 439] |
| 200 | – | 5500 | Cc1cccc2cc(C(=O)Nc3cccc(N4CCN(S(=O)(=O)CCN)CC4)c3)[nH]c12 [compound 449] |
| 100 | 2200 | – | Cc1ccc(F)c2cc(C(=O)Nc3cccc(C4(N)CC4)c3)[nH]c12 [compound 395] |
| 100 | 3000 | – | Cc1ccc(F)c2cc(C(=O)Nc3ccc4cnc(CN5CCN(C)CC5)cc4c3)[nH]c12 [compound 409] |
| 100 | 3100 | – | Cc1cc(C(=O)NC2CCN(C)CC2)cnc1C(NC(=O)c1cc2c(F)ccc(C)c2[nH]1)C1CC1 (stereo not shown) [compound 412] |
| 100 | – | 3200 | Cc1ccc(F)c2cc(C(=O)Nc3cccc4c(N5CCC(N(C)C)CC5)[nH]nc34)[nH]c12 [compound 415] |
| 100 | 3400 | – | Cc1ccc(F)c2cc(C(=O)Nc3cccc(CCN)c3)[nH]c12 [compound 418] |
| 100 | – | 4300 | Cc1cccc2cc(C(=O)Nc3cccc(N4CCN(S(=O)(=O)C5CCC(N)CC5)CC4)c3)[nH]c12 (stereo not shown) [compound 429] |
| 80 | 3200 | – | Cc1cc(CCN2CCN(C)CC2)cnc1C(CCc1ccccc1)NC(=O)c1cc2c(F)ccc(C)c2[nH]1 (stereo not shown) [compound 414] |
| 70 | 2400 | – | CCc1cc(NC(=O)c2cc3c(F)ccc(C)c3[nH]2)cc(N2CCC(N(C)C)CC2)c1 [compound 398] |
| 40 | – | 3300 | Cc1ccc(F)c2cc(C(=O)Nc3ccc4nc(NC5CCNCC5)ncc4c3)[nH]c12 [compound 416] |
| 30 | 2400 | – | Cc1ccc(F)c2cc(C(=O)Nc3cc(N4CCN(C)CC4)c4cnccc4c3)[nH]c12 [compound 401] |
| 30 | 3100 | – | Cc1ccc(F)c2cc(C(=O)Nc3cccc(N4CCC(NCCN)CC4)c3)[nH]c12 [compound 413] |
| 30 | – | 4600 | Cc1ccc(F)c2cc(C(=O)Nc3cccc(N4CCC(NCc5cnc[nH]5)CC4)c3)[nH]c12 [compound 433] |

Source: US12116358B2, “Substituted indoles and methods of use thereof” (EPIZYME, INC., priority 2018, dated 2024)
